Test results taken from US11752111B2, “Use of cannabidivarin in the treatment of autism spectrum disorder, associated disorders and schizophrenia” (GW Research Limited, priority 2016, dated 2023).

How the values were obtained:
VPA-exposed rats [1] = experiment: Short-term memory, novel object recognition test, prenatal VPA model; type: in vivo, rat
Method: (§1) Pregnant Sprague-Dawley rats (Charles River, Calco, Italy), received a single intraperitoneal injection of 500 mg/kg sodium valproate on the 12.5 day after conception, and control females were injected with physiological saline at the same time. Sodium valproate (Sigma Aldrich, Milan, IT) was dissolved in saline at a concentration of 250 mg/ml.
CBDV was dissolved in ethanol, cremophor and saline (1:1:18). Symptomatic treatment with CBDV at doses of 0.2, 2, 20, and 100 mg/kg/day i.p. was performed starting from PND 34 (early adolescence) till 56 (early adulthood), both in male and female offspring of dams injected with VPA 500 mg/kg (or vehicle) on day 12.5 after conception. […]
Short-term memory: The experimental apparatus used for the object recognition test was an open-field box (43×43×32 cm) made of Plexiglas, placed in a dimly illuminated room. The experiment was performed and analysed as previously described (Zamberletti et al, 2014). […]
Each animal was placed in the arena and allowed to explore two identical previously unseen objects for 5 minutes (familiarization phase). […] During the test phase the time spent exploring the familiar object (Ef) and the new object (En) was videotaped and recorded separately by two observers blind to the treatment groups and the discrimination index was calculated as follows: [(En−Ef)/(En+Ef)]×100.

VPA-exposed rats [2] = experiment: Sociability and preference for social novelty, 3-chamber apparatus, prenatal VPA model; type: in vivo, rat
Method: as §1
(§2) CBDV was dissolved in ethanol, cremophor and saline (1:1:18). Symptomatic treatment with CBDV at doses of 0.2, 2, 20, and 100 mg/kg/day i.p. was performed starting from PND 34 (early adolescence) till 56 (early adulthood), both in male and female offspring of dams injected with VPA 500 mg/kg (or vehicle) on day 12.5 after conception. At PND 56, a series of behavioural tests was performed in order to assess the effect of chronic CBDV on sociability, social novelty, short-term memory, locomotion and stereotyped/repetitive behaviours.
Sociability and preference for social novelty: These behaviours were investigated in a 3-chamber apparatus which allows for the measurement of social approach and social preference. In brief, animals were placed into a novel arena (80 cm×31.5 cm) composed of three communicating chambers separated by Perspex walls with central openings allowing access to all chambers for 5 min.
Following this acclimatisation period, animals were briefly confined to the central chamber while an unfamiliar rat confined in a small wire cage was placed in one of the outer chambers. An identical empty wire cage was placed in the other chamber. The unfamiliar rat was randomly assigned to either the right or left chamber of the arena. The test animal was then allowed to explore the arena/chambers for a further 5 min. Time spent engaging in investigatory behaviour with the rat was evaluated with the aid of Anymaze program (Ugo Basile, Italy) in order to examine social approach.
To investigate the preference for social novelty, a novel unfamiliar rat was then placed in the empty cage and the test animal was then allowed to explore the arena/chambers for a further 5 min. Time spent engaging in investigatory behaviour with the novel unfamiliar rat was evaluated with the aid of Anymaze program (Ugo Basile, Italy) in order to examine preference for social novelty.

Fmr1 KO mice = experiment: Novel object recognition task in Fragile X model; type: in vivo, mouse
Method: Fmr1 KO mice and wild type mice were obtained and housed four per cage in a temperature of 21° C.±1° C. and humidity of 55%±10% controlled environment. Food and water were available ad libitum. All experiments were performed during the light phase of a 12 hour light/dark cycle (08:00 to 20:00). Animals were handled for one week before the start of experiments. All behavioural tests were performed by researchers blind to the different experimental groups.
On day one mice were habituated for 10 minutes to the empty V-maze in which the task was to be performed. On the second day the mice went back to the maze for 10 minutes which contained two identical objects at the end of each corridor in the V-maze.
The following day the mice were placed again in the same maze for a further 10 minutes but one of the familiar objects was replaced for a novel object. The total time spent exploring the novel and familiar object was recorded. A discrimination index was calculated as the difference between the time spent exploring the novel and familiar object divided by the total time exploring the two objects. A high discrimination index (0.3-0.5) is considered to reflect memory retention for the familiar object.
Adult mice (10-15 weeks old) were treated either acutely with one dose of CBDV on […] or were treated once daily with CBDV for 7 consecutive days. Mice were evaluated in the novel object recognition task after the first and sixth day of CBDV administration. Doses of CBDV used were 2, 10, 20, 100 and 200 mg/kg.

Ube3am-/p+ (AS) mice = experiment: Tail suspension test in Angelman syndrome model; type: in vivo, mouse; conditions: CBDV 20 mg/kg i.p.; AS mice vs AS vehicle
Method: Heterozygous mice with maternal deficiency of Ube3A (Ube3am−/p+) and wild type (Ube3am+/p+) were purchased from The Jackson Laboratory (Jackson code: B6.129S7-Ube3a tm1Alb/J) and maintained in a C57BL/6 background.
Drugs were dissolved in 1:1:18 ethanol:cremophor:0.9% saline, for intraperitoneal (i.p.) administration. Drug treatment was performed daily for 35 days. CBDV was administered at 20 mg/kg.
Tail suspension: The tail suspension test assesses depressive-like behaviour in mice. Mice were individually suspended by the tail on a horizontal bar (50 cm from floor) using adhesive tape placed approximately 4 cm from the tip of the tail. The duration of immobility was recorded in seconds over a period of 6 minutes by a time recorder. Immobility time was defined as the absence of escape-oriented behaviour.

VPA-exposed rats [3] = experiment: Locomotor activity and repetitive behaviours (self-grooming), prenatal VPA model; type: in vivo, rat; conditions: VPA offspring
Method: as §1, §2
Locomotor activity and repetitive behaviours: Locomotor activity was recorded in an activity cage for 20 minutes with the aid of Anymaze program (Ugo Basile, Italy). In this period, repetitive behaviours (self-grooming and digging) were measured by an observer blind to the treatment group.

SMILES: C=C(C)[C@@H]1CCC(C)=C[C@H]1c1c(O)cc(CCC)cc1O [CBDV, Cannabidivarin]
- short-term memory deficit, discrimination index (FIG. 2C) (VPA-exposed rats [1]; 2, 20 and 100 mg/kg, male and female VPA rats): completely and significantly reversed
- recognition memory per se (VPA-exposed rats [1]; vehicle-treated (non VPA) rats): without affecting per se recognition memory
- restoration of social novelty preference (FIG. 1A) (VPA-exposed rats [2]; CBDV 20 mg/kg/day i.p. PND 34-56, VPA offspring, p<0.001 in males, p<0.01 in females): statistically significant effect
- reduction of preference index compared to controls (VPA-exposed rats [2]; VPA-CBDV animals, VPA alone about 48%): about 13%
- impairment in sociability (FIG. 1B) (VPA-exposed rats [2]; all doses (0.2, 2, 20, 100 mg/kg/day i.p.), VPA rats): significantly reduced the impairment in sociability
- deficit in social preference (FIG. 1C), time exploring novel vs familiar rat (VPA-exposed rats [2]; doses of 20 mg/kg and 100 mg/kg, VPA rats): reversed the deficit in social preference
- discrimination index (FIG. 3A) (Fmr1 KO mice): no effect
- increase of discrimination index over vehicle treated mice (FIG. 3A) (Fmr1 KO mice; acute treatment, 2 mg/kg, knockout mice): not significant
- discrimination index vs vehicle treated knockout mice (FIG. 3B) (Fmr1 KO mice; chronic treatment once daily for 7 days, 20 and 100 mg/kg, knockout mice): statistically significant increase
- duration of immobility time, tail suspension (FIG. 14) (Ube3am-/p+ (AS) mice): significantly reduced the duration of immobility time
- repetitive behaviours (compulsive self-grooming) (FIG. 2A) (VPA-exposed rats [3]; 20 mg/kg in males): significantly normalize
- locomotor activity (FIG. 2B) (VPA-exposed rats [3]; 2, 20 and 100 mg/kg in males): normalize
- repetitive behaviours (compulsive self-grooming) (FIG. 2A) (VPA-exposed rats [3]; 2 and 100 mg/kg in females): significantly normalize
